Experimental data as given in patent US20260265222A1, “1H-PYRROLE-2-AMIDE DERIVATIVE, PHARMACEUTICAL COMPOSITION AND METHOD FOR TREATING AND/OR PREVENTING YTHDC1-RELATED DISEASES” (priority 2023, published 2026).

tested on: leukaemia cell MOLM-13; test: Cell cycle detection by flow cytometry (PI); type: cell-based; conditions: MOLM-13, 0.5-2 μM, 48 h (FIG. 1b)
Procedure: To detect the effect of the small molecule YL-5092 on the cell cycle of leukaemia cell MOLM-13, MOLM-13 cells were evenly seeded in 12-well plates and treated with different concentration gradients of YL-5092 (0.5-2 μM) for 48 h. After collection, the cells were washed once with ice-cold PBS and fixed with 70% ice-cold ethanol for 12 h. Before analysis on the flow cytometer, the cells were washed twice with ice-cold PBS and then incubated with PI reagent for 30 min, protected from light.

Structure (SMILES)	AML cell cycle arrest
O=C(Nc1ccc(-c2cncs2)cc1)c1cc(C(=O)c2ccccc2C(F)(F)F)c[nH]1 [Compound 29]	significantly induce AML cell cycle arrest in the G0/G1 phase

target: T1, GST-YTHDC1 (345-509) protein (Homo sapiens, UniProt Q96MU7); test: Fluorescence polarization-based in vitro enzyme-level test against YTHDC1; type: binding; conditions: 30 nM GST-YTHDC1 (345-509), FAM-labeled m6A-modified single-stranded oligonucleotide, 18° C., 4 hours; read-out: IC50 (Inhibitory Activity against YTHDC1)
T1 construct: GST-YTHDC1 (345-509) protein

Structure (SMILES)	IC50
O=C(Nc1ccc(-c2cncs2)cc1)c1cc(C(=O)c2ccccc2C(F)(F)F)c[nH]1 [Compound 29]	7 nM
CC(C)(C)c1ccccc1C(=O)c1c[nH]c(C(=O)Nc2cccnc2)c1 [Compound 10]	2010 nM
O=C(Nc1cccnc1)c1cc(C(=O)c2ccccc2C(F)(F)F)c[nH]1 [Compound 2]	800 nM
CS(=O)(=O)c1ccccc1-c1cccc2[nH]c(C(=O)Nc3ccc(-c4cncs4)cc3)cc12 [Compound 69]	373 nM
Cc1ncsc1-c1ccc(NC(=O)c2cc(C(=O)c3ccccc3C(F)(F)F)c[nH]2)cc1 [Compound 33]	12 nM
O=C(Nc1ccc(-c2ccccn2)cc1)c1cc(C(=O)c2ccccc2C(F)(F)F)c[nH]1 [Compound 22]	23 nM
CS(=O)(=O)c1ccccc1-c1nccc2[nH]c(C(=O)Nc3ccc(-c4ccncc4)cc3)cc12 [Compound 73]	6270 nM
O=C(Nc1ccc(-c2cncs2)cc1)c1cc2c(-c3ccccc3CO)nccc2[nH]1 [Compound 45]	> 50000 nM
O=C(Nc1ccccc1F)c1cc(C(=O)c2ccccc2C(F)(F)F)c[nH]1 [Compound 13]	612 nM
O=C(Nc1ccc(-c2cncs2)cc1)c1cc2c(-c3ccccc3OC(F)(F)F)nccc2[nH]1 [Compound 44]	138 nM
O=C(Nc1ccc(-c2cncs2)cc1)c1cc2c(-c3ccccc3)nccc2[nH]1 [Compound 47]	> 50000 nM

More lines, now with the values ahead:

IC50	Structure (SMILES)
≥ 50000 nM	CC(C)(C)OC(=O)N1CCc2cc(-c3ccc(NC(=O)c4cc(C(=O)c5ccccc5C(F)(F)F)c[nH]4)cc3)ccc21 [Compound 124]
14 nM	O=C(Nc1ccc(-c2cnco2)cc1)c1cc(C(=O)c2ccccc2N2CC(F)C2)c[nH]1 [Compound 153]
28 nM	O=C(Nc1ccc(-c2cnco2)cc1)c1cc(C(=O)c2ccccc2N2CCOC2=O)c[nH]1 [Compound 136]
134 nM	O=C(Nc1ccc(-c2cnco2)cc1)c1cc(C(=O)c2ccccc2N2CCCCCC2)c[nH]1 [Compound 140]
189 nM	O=C(Nc1ccc(-c2cnco2)cc1)c1cc(C(=O)c2ccccc2N2CCCCCCC2)c[nH]1 [Compound 141]
9 nM	O=C(Nc1ccc(-c2cnco2)cc1)c1cc(C(=O)c2ccccc2CCCCO)c[nH]1 [Compound 143]
≥ 50000 nM	COC(=O)c1cc(C(F)(F)F)ccc1NC(=O)c1cc(C(=O)c2ccccc2C(F)(F)F)c[nH]1 [Compound 117]
367 nM	O=C(Nc1ccccc1)c1ccc(NC(=O)c2cc(C(=O)c3ccccc3C(F)(F)F)c[nH]2)cc1 [Compound 111]
113 nM	O=C(Nc1ccc(-c2ocnc2CO)cc1)c1cc(C(=O)c2ccccc2C(F)(F)F)c[nH]1 [Compound 94]
409 nM	CN1CCN2c3ccc(NC(=O)c4cc(C(=O)c5ccccc5C(F)(F)F)c[nH]4)cc3OCC2C1 (stereo not shown) [Compound 92]
8.92 nM	O=C(Nc1ccc(-c2cnco2)c(F)c1)c1cc(C(=O)c2ccccc2C(F)(F)F)c[nH]1 [Compound 93]
≥ 50000 nM	CC(C)(C)OC(=O)Nc1ccc(-c2ccc(NC(=O)c3cc(C(=O)c4ccccc4C(F)(F)F)c[nH]3)cc2)cc1 [Compound 116]

same assay, conditions: read-out: IC50 (Inhibitory Activity against YTHDC1)

Structure (SMILES)	IC50
C[Si]1(C)CCN(c2ccccc2C(=O)c2c[nH]c(C(=O)Nc3ccc(-c4cnco4)cc3)c2)CC1 [Compound 122]	83 nM

tested on: AML cells (MV4-11, HL-60, MOLM-13, THP-1, KG-1, U937, OCI-AML3); test: Detection of cell proliferation by MTT assay; type: cell-based; conditions: 72 h, range over the cell lines (FIG. 1a), read-out: IC50 values, inhibition of proliferation of AML cells
Procedure: AML cells (MV4-11, HL-60, MOLM-13, THP-1, KG-1, U937, and OCI-AML3) were seeded in 96-well plates at 10,000-15,000 cells per well, and then a series of concentration gradients of YL-5092 (i.e., Compound 29) were added for culture for 72 h. 20 μL of MTT solution ([…]) was added to each well and incubated for 2-4 hours, followed by the addition of 50 μL of 20% SDS solution and incubation overnight to dissolve the formazan. The absorbance value was then read at 570 nm on a microplate reader, and the IC50 value of YL-5092 was calculated using GraphPad Prism 8.0.

IC50	Structure (SMILES)
280 to 2870 nM	O=C(Nc1ccc(-c2cncs2)cc1)c1cc(C(=O)c2ccccc2C(F)(F)F)c[nH]1 [Compound 29]

tested on: leukaemia cell MOLM-13; test: Differentiation detection by flow cytometry (PE-CD11b, APC-CD14); type: cell-based; conditions: MOLM-13, 0.5-2 μM, 5 days (FIG. 1c)
Procedure: To detect the effect of the small molecule YL-5092 on the differentiation of leukaemia cell MOLM-13, MOLM-13 cells were evenly seeded in 12-well plates and treated them with different concentration gradients of YL-5092 (0.5-2 μM) for 5 days. After collection, the cells were washed twice with ice-cold PBS, and 2 μL of PE-CD11b antibody and 2 μL of APC-CD14 antibody were added for incubation for 30 min, protected from light, then washed twice with ice-cold PBS, and finally analyzed on the flow cytometer.

Structure (SMILES)	AML cell differentiation
O=C(Nc1ccc(-c2cncs2)cc1)c1cc(C(=O)c2ccccc2C(F)(F)F)c[nH]1 [Compound 29]	induce AML cell differentiation

tested on: leukaemia cells MOLM-13, MV4-11, THP-1, and U937; test: Apoptosis detection by flow cytometry (APC-Annexin V, 7-AAD); type: cell-based; conditions: MOLM-13, MV4-11, THP-1, U937; 0.5-2 μM, 5 days (FIG. 1d)
Procedure: To detect the effect of the small molecule YL-5092 on the apoptosis of leukaemia cells MOLM-13, MV4-11, THP-1, and U937, MOLM-13, MV4-11, THP-1, and U937 cells were evenly seeded in 12-well plates and treated them with different concentration gradients of YL-5092 (0.5-2 μM) for 5 days. After collection, the cells were washed twice with ice-cold PBS, and 5 μL of APC-Annexin V antibody and 5 μL of 7-AAD were added for incubation for 15-30 min, protected from light, and finally analyzed on the flow cytometer.

Structure (SMILES)	AML cell apoptosis
O=C(Nc1ccc(-c2cncs2)cc1)c1cc(C(=O)c2ccccc2C(F)(F)F)c[nH]1 [Compound 29]	apoptosis
